Data on three compounds can be found in patent US20220250063A1, “ASSAY SYSTEM, METHODS, AND MULTI-WELL PLATE FOR GAS STIMULATION OF BIOLOGICAL CELLS, PROTEINS OR MATERIALS” (Koniku Inc., priority 2021, published 2022).

SMILES strings stand for the structures.

In this assay the test system is odorant receptor of the modified cells. Briefly: Gas stimulation of modified cells expressing different odorant receptors in a 96 well microplate, fluorescence recorded by camera. The class given is cell-based. The conditions noted are these: sample as gas in the gas channel of 96 well microplate 80; for fluorescent response of the responding wells: different ORs in different wells, responding wells (81A: one well; 81C: four wells; 81E: two wells); for fluorescent response of all of the other wells: remaining dark wells (81B: 95 wells; 81D: 92 wells; 81F: 94 wells). The text has this: In a representative example of operation, an empty microplate is placed in the hatch 120 by a technician or automatically using a microplate loader/unloader. The microplate is moved to the disk support, with the wells aligned with the pipettes. The pipetting head holding the pipettes is lowered to position the tips of the pipettes in or near the wells. The pipettes deposit liquid containing cells into the wells. Inlet and outlet gas nozzles or fittings engage the gas channel inlet and outlet in the microplate. In some embodiments, there are more than one inlets and outlets that correspond to the number of channels and number of samples injected. Gas containing a VOC or other candidate molecule or compound sample is injected through the gas channel of the microplate. This may be done manually or via automation.
If the VOC or other candidate molecule or compound in the sample binds and activates the odorant receptor expressed by the cells, a signal is emitted (e.g., emission of fluorescent or luminescent light). The signal is detected by the camera 128 via the optical unit 126. The computer 138 analyzes and records the location (i.e., the well number or position), the intensity, time duration, color, and/or other parameters of the fluorescent light, along with data on the VOC or other candidate molecule or compound momentarily passing through the microplate. The computer 138 may calculate the mean of the pixels for each well in each of the images.
FIG. 14 is an image as recorded by the camera 128 with a sample of benzaldehyde provided into the gas channel of a 96 well microplate 80.
The microplate 80 shown in FIGS. 14-16 has different cells in different wells. As shown, the odorant receptors of different cells bind to different compounds. In each well of the 96 well microplate 80, the cells expressed the same OR. Different ORs were provided into different wells. […] This allows determination of which ORs may best detect menthol. It may also allow for genetically fine tuning the receptors.

`CCCCCc1ccco1` [2-pentylfuran]: the “fluorescent response of the responding wells” value is recorded as “strong fluorescent responses” and the “fluorescent response of all of the other wells” value is “no fluorescent response”.
In the same order, the values of `O=Cc1ccccc1` [benzaldehyde] are “strongly fluorescing” and “not at all”.
For the compound `CC1CCC(C(C)C)C(O)C1` (stereo not drawn) [menthol], the “fluorescent response of the responding wells” value was “strong fluorescent responses” and the “fluorescent response of all of the other wells” value is given as “no fluorescent response”.
